# Where two headings read alike, the source gives them in different places.
# Experiments:
# HCT 116 cells = experiment: Cell growth assay (CellTiter-Glo 2.0), HCT 116 MSI-H cell line; conditions: Homo sapiens, HCT-116, 120 h, read-out: Cell Growth Inhibition GI50 HCT-116
# Procedure: The effects of compound on cellular viability were determined using the CellTiter-Glo® 2.0 Luminescent Cell Viability Assay (Promega, Madison, WI).
# SW480 cells were seeded at 1,000 cells per well in Eagle's Minimum Essential Medium (EMEM) with 10% FBS. Both cell lines were seeded in a volume of 50 μL medium per well. […] The concentration range was adjusted as needed for compounds of different potencies. The cells treated with compounds were incubated for 5 days at 37° C. in 5% CO2. […] The plate was then read on a Clariostar plate reader (BMG Labtech, Cary, NC) in luminescence mode. The previously measured baseline cell viability was subtracted from the luminescence value of each well, and cell viability (% of DMSO) was plotted as a function of log compound concentration. The EC50 was then calculated for each compound using Dotmatics Software (San Diego, CA).
# WRN C727 [1] = target: T1, WRN C727 (Homo sapiens, UniProt Q14191); experiment: Target engagement, in situ (cell), OCI-AML2; assay type: cell-based; conditions: OCI-AML2 cells, read-out: OCI-AML2 WRN C727 TE50 in situ (cell)
# T1 construct: endogenous in cells; host or cells: OCI-AML2
# Procedure: Cells or cell lysates were treated with a dose response of compound followed by probe treatment, which labels solvent exposed cysteines. Proteins were enzymatically digested with trypsin and probe-labelled peptides were enriched with streptavidin. Isolated peptides were then separated using reversed-phase liquid chromatography on a C18 column (Dionex Ultimated 3000 nano-LC, Thermo). Peptides were analyzed by parallel reaction monitoring mass spectrometry (Exploris 120, Thermo).
# Target engagement (%) is calculated relative to DMSO treated control samples.
# WRN C727 [2] = target: T1, WRN C727; experiment: Target engagement, in vitro (lysate), OCI-AML2; assay type: binding; conditions: read-out: OCI-AML2 WRN C727 TE50 in vitro (lysate)
# Summary of the method: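 Percent engagement of WRN C727 is expressed against DMSO-treated samples, measured by PRM mass spectrometry of streptavidin-enriched, probe-tagged tryptic peptides. Compound dose responses preceded probe labelling of solvent-exposed cysteines, in either living OCI-AML2 cells or their lysates.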
# SW480 cells = experiment: Cell growth assay (CellTiter-Glo 2.0), SW480 MSS cell line; conditions: Homo sapiens, SW480, 120 h, read-out: Cell Growth Inhibition GI50 SW480
# [3] = target: hWRN(519-1227)_C-H3CV-GFP-10His (Homo sapiens, UniProt Q14191); experiment: Helicase Assay for WRN Inhibition (ATP-dependent, fluorescence based)
# [4] = WRN Helicase IC50, 30 min preincubation with ATP, 30 min reaction
# T1 sequence (Q14191 whole entry): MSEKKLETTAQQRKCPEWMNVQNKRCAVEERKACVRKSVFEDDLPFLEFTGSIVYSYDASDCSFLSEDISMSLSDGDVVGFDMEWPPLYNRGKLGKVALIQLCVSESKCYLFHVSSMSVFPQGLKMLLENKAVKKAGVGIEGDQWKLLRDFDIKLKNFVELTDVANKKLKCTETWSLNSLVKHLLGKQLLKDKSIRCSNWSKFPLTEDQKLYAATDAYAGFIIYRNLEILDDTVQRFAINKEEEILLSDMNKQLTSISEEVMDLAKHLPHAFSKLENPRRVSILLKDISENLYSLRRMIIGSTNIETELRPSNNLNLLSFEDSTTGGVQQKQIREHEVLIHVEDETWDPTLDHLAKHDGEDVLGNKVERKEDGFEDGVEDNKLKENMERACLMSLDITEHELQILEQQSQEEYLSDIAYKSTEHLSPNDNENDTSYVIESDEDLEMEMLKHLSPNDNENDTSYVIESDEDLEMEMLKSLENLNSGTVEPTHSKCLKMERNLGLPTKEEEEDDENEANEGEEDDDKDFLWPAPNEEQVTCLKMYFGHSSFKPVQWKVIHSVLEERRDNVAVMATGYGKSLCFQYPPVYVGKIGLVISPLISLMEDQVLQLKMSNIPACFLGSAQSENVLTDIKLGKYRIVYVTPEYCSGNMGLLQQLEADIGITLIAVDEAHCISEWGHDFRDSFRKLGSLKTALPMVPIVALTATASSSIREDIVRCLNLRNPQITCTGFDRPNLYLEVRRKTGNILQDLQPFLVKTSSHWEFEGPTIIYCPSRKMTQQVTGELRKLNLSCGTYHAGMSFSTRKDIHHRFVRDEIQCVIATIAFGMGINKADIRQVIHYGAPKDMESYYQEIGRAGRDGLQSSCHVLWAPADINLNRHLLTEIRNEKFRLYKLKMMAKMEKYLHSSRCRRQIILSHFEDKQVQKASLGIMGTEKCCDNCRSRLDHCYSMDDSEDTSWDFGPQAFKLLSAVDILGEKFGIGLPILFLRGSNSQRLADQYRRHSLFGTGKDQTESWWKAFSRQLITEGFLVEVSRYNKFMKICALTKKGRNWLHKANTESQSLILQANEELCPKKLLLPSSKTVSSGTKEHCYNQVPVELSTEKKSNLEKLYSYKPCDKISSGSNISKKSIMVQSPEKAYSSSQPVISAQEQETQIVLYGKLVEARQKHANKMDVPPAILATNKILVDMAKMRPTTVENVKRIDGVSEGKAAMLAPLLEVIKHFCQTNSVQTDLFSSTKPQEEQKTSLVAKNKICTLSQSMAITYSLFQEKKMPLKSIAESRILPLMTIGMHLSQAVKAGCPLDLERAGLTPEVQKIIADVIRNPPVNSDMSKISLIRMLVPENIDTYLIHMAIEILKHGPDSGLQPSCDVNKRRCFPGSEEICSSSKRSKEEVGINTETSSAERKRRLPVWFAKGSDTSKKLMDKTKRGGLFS
# hWRN(519-1227)_C-H3CV-GFP-10His, sequence (Q14191 519-1227): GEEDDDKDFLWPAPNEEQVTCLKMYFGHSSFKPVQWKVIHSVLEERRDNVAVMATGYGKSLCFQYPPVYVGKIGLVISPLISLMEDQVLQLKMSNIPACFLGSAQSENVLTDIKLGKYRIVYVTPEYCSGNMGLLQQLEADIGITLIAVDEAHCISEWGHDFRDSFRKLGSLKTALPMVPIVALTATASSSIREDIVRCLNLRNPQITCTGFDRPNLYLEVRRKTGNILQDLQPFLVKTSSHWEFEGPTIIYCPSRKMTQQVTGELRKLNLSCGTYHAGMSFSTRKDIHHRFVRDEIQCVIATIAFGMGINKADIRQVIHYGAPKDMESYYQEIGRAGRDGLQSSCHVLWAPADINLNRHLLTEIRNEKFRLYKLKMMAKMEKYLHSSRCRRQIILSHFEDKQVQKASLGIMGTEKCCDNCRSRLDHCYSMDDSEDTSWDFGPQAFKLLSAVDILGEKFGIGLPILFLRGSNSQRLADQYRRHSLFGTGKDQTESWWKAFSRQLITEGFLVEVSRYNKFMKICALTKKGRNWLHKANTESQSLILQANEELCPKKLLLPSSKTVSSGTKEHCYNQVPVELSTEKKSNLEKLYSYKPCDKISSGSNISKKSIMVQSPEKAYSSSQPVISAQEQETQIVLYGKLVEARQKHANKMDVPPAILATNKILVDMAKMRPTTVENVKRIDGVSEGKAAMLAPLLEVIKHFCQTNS
SMILES,GI50 (HCT 116 cells) [µM],IC50 (WRN C727 [1]) [µM],IC50 (WRN C727 [2]) [µM],GI50 (SW480 cells) [µM],"IC50 [3, 4] [µM]",IC50 [3] [µM]
"COCC(/C=C/S(C)(=O)=O)NC(=O)c1cnc(C(F)(F)C2CC2)nc1Oc1ccccc1 (stereo in doubt) [Example 226, (S,E)-2-(cyclopropyldifluoromethyl)-N-(1-methoxy-4-(methylsulfonyl)but-3-en-2-yl)-4-phenoxypyrimidine-5-carboxamide]",0.023,0.016,0.116,27.9,0.0929,–
"CC[C@@H](/C=C/S(C)(=O)=O)NC(=O)c1cnc(C2CCCC2)nc1Oc1ccccc1 [Example 6, (S,E)-2-cyclopentyl-N-(1-(methylsulfonyl)pent-1-en-3-yl)-4-phenoxypyrimidine-5-carboxamide]",0.214,0.2,5,11.8,0.439,–
"CCc1ncc(C(=O)NC/C=C/S(C)(=O)=O)c(Oc2ccccc2)n1 [Example 12, (E)-2-ethyl-N-(3-(methylsulfonyl)allyl)-4-phenoxypyrimidine-5-carboxamide]",8.9,50,> 100,> 10,14,–
"CC(C)c1ncc(C(=O)NC/C=C/S(C)(=O)=O)c(Oc2ccccc2)n1 [Example 14, (E)-2-isopropyl-N-(3-(methylsulfonyl)allyl)-4-phenoxypyrimidine-5-carboxamide]",5.4,2.09,20,> 10,10,–
"CS(=O)(=O)/C=C/CNC(=O)c1cnc(C2CC2)nc1Oc1ccccc1 [Example 17, (E)-2-cyclopropyl-N-(3-(methylsulfonyl)allyl)-4-phenoxypyrimidine-5-carboxamide]",6.3,5.99,80,> 10,7.62,–
"C[C@@H](/C=C/S(C)(=O)=O)NC(=O)c1cnc(C2CC2)nc1Oc1ccccc1 [Example 18, (S,E)-2-cyclopropyl-N-(4-(methylsulfonyl)but-3-en-2-yl)-4-phenoxypyrimidine-5-carboxamide]",0.38,1.53,6.84,> 10,1.1,–
"C[C@@H](/C=C/S(C)(=O)=O)NC(=O)c1cnc(CC2CC2)nc1Oc1ccccc1 [Example 35, (S,E)-2-(cyclopropylmethyl)-N-(4-(methylsulfonyl)but-3-en-2-yl)-4-phenoxypyrimidine-5-carboxamide]",0.171,0.29,5,18.1,1.01,–
"C[C@@H](/C=C/S(C)(=O)=O)NC(=O)c1cnc(C2CCC2)nc1Oc1ccccc1 [Example 44, (S,E)-2-cyclobutyl-N-(4-(methylsulfonyl)but-3-en-2-yl)-4-phenoxypyrimidine-5-carboxamide]",0.27,0.26,1.18,> 10,0.91,–
"C[C@@H](/C=C/S(C)(=O)=O)NC(=O)c1cnc(-c2ccccc2)nc1Oc1ccccc1 [Example 80, (S,E)-N-(4-(methylsulfonyl)but-3-en-2-yl)-4-phenoxy-2-phenylpyrimidine-5-carboxamide]",–,20.4,> 100,–,148,–
"CCc1cccc(Oc2nc(C3CCCC3)ncc2C(=O)N[C@@H](C)/C=C/S(C)(=O)=O)c1 [Example 108, (S,E)-2-cyclopentyl-4-(3-ethylphenoxy)-N-(4-(methylsulfonyl)but-3-en-2-yl)pyrimidine-5-carboxamide]",–,50,> 100,–,87,–
"C[C@@H](/C=C/S(C)(=O)=O)NC(=O)c1cnc(C2CCCC2)nc1Oc1cc(F)cc(Cl)c1 [Example 122, (S,E)-4-(3-chloro-5-fluorophenoxy)-2-cyclopentyl-N-(4-(methylsulfonyl)but-3-en-2-yl)pyrimidine-5-carboxamide]",–,8.07,> 100,–,22,–
"C[C@@H](/C=C/S(C)(=O)=O)NC(=O)c1cnc(C2CCCC2)nc1Oc1cc(Cl)cc(Cl)c1 [Example 123, (S,E)-2-cyclopentyl-4-(3,5-dichlorophenoxy)-N-(4-(methylsulfonyl)but-3-en-2-yl)pyrimidine-5-carboxamide]",–,20,> 100,–,29,–
"C[C@@H](/C=C/S(C)(=O)=O)NC(=O)c1cnc(C2CCCC2)nc1Oc1cccc2ccccc12 [Example 139, (S,E)-2-cyclopentyl-N-(4-(methylsulfonyl)but-3-en-2-yl)-4-(naphthalen-1-yloxy)pyrimidine-5-carboxamide]",–,> 100,> 100,–,192,–
"CS(=O)(=O)/C=C/CNC(=O)c1cnc(N2CCCC2)nc1Oc1ccccc1 [Example 167, (E)-N-(3-(methylsulfonyl)allyl)-4-phenoxy-2-(pyrrolidin-1-yl)pyrimidine-5-carboxamide]",–,7.08,> 100,–,15.6,–
"CS(=O)(=O)C=C1CN(C(=O)c2cnc(C3CC3)nc2Oc2ccccc2)C1 [Example 188, (2-cyclopropyl-4-phenoxypyrimidin-5-yl)(3-((methylsulfonyl)methylene)azetidin-1-yl)methanone]",0.391,0.49,–,> 15.2,–,1.1
"Cn1ncc2cc(C(=O)N[C@H](/C=C/S(C)(=O)=O)C3CC3)c(Oc3ccccc3)nc21 [Example 252, (S,E)-N-(1-cyclopropyl-3-(methylsulfonyl)allyl)-1-methyl-6-phenoxy-1H-pyrazolo[3,4-b]pyridine-5-carboxamide]",2.1,–,0.35,> 30,12,–
"C[C@@H](/C=C/S(C)(=O)=O)NC(=O)c1cnc(C(C)(C)C)cc1Oc1ccccc1 [Example 253, (S,E)-6-(tert-butyl)-N-(4-(methylsulfonyl)but-3-en-2-yl)-4-phenoxynicotinamide]",0.24,0.2,–,> 10,0.94,–
"C[C@@H](/C=C/S(C)(=O)=O)NC(=O)c1c(N)nc(C2CCCC2)nc1Oc1ccccc1 [Example 255, (S,E)-4-amino-2-cyclopentyl-N-(4-(methylsulfonyl)but-3-en-2-yl)-6-phenoxypyrimidine-5-carboxamide]",0.329,–,3.77,> 12.7,1.14,–
"C[C@@H](/C=C/S(C)(=O)=O)NC(=O)c1cnc(CC(F)(F)F)nc1Oc1ccccc1 [Example 260, (S,E)-N-(4-(methylsulfonyl)but-3-en-2-yl)-4-phenoxy-2-(2,2,2-trifluoroethyl)pyrimidine-5-carboxamide]",1.8,–,> 100,41,8.2,–
"CS(=O)(=O)/C=C/[C@@H](NC(=O)c1cnc(CC(F)(F)F)nc1Oc1ccccc1)C1CC1 [Example 261, (S,E)-N-(1-cyclopropyl-3-(methylsulfonyl)allyl)-4-phenoxy-2-(2,2,2-trifluoroethyl)pyrimidine-5-carboxamide]",0.35,–,1.79,38,0.88,–
"C=C(C#N)CNC(=O)c1cnc(C2CCCC2)nc1Oc1ccccc1 [Example 268, N-(2-cyanoallyl)-2-cyclopentyl-4-phenoxypyrimidine-5-carboxamide]",2.1,–,23.3,14,1.7,–
"C=C(C#N)CNC(=O)c1cnc(C2CC2)nc1Oc1ccccc1 [Example 269, N-(2-cyanoallyl)-2-cyclopropyl-4-phenoxypyrimidine-5-carboxamide]",3.3,–,25,17.9,–,6.1
"C=C(C#N)CNC(=O)c1cnc(C(C)(C)C)nc1Oc1ccccc1 [Example 270, 2-(tert-butyl)-N-(2-cyanoallyl)-4-phenoxypyrimidine-5-carboxamide]",0.51,–,8.53,11,0.91,–
"C=C(C#N)CNC(=O)c1cnc(C(C)(F)F)nc1Oc1ccccc1 [Example 271, N-(2-cyanoallyl)-2-(1,1-difluoroethyl)-4-phenoxypyrimidine-5-carboxamide]",0.397,–,17.4,12,0.986,–
"CCOc1cc(C2CCCC2)ccc1C(=O)NC/C=C/S(C)(=O)=O [Example 280, (E)-4-cyclopentyl-2-ethoxy-N-(3-(methylsulfonyl)allyl)benzamide]",–,21.3,8.49,–,62,–
"C[C@@H](/C=C/S(C)(=O)=O)NC(=O)c1ccc(C2CCCC2)cc1Oc1ccccc1 [Example 286, (S,E)-4-cyclopentyl-N-(4-(methylsulfonyl)but-3-en-2-yl)-2-phenoxybenzamide]",0.6,–,3.58,> 10,1.4,–

# Source: patent US20250188040A1, “PHARMACEUTICAL COMPOSITIONS COMPRISING WRN HELICASE INHIBITORS” (Vividion Therapeutics, Inc., priority 2022, published 2025)
